According to patent US20250340537A1, “PHARMACEUTICALLY ACTIVE COMPOUNDS, COMPOSITIONS, AND METHODS FOR MODULATING PENDRIN” (ARBORMED Co., Ltd., priority 2022, published 2025):

What follows are compounds tested against T1, H723R-pendrin (Homo sapiens, UniProt O43511, H723R) (assay: YFP fluorescence quenching assay (Cl−/I− exchange activity of pendrin)). Conditions: PANC-1 cells stably expressing human H723R-pendrin and YFP-F46L/H148Q/I152L; compound incubation 20-24 hours; iodide influx.
T1 construct: expressed in transfected cells; host or cells: PANC-1
T1 sequence (O43511 1-780 H723R): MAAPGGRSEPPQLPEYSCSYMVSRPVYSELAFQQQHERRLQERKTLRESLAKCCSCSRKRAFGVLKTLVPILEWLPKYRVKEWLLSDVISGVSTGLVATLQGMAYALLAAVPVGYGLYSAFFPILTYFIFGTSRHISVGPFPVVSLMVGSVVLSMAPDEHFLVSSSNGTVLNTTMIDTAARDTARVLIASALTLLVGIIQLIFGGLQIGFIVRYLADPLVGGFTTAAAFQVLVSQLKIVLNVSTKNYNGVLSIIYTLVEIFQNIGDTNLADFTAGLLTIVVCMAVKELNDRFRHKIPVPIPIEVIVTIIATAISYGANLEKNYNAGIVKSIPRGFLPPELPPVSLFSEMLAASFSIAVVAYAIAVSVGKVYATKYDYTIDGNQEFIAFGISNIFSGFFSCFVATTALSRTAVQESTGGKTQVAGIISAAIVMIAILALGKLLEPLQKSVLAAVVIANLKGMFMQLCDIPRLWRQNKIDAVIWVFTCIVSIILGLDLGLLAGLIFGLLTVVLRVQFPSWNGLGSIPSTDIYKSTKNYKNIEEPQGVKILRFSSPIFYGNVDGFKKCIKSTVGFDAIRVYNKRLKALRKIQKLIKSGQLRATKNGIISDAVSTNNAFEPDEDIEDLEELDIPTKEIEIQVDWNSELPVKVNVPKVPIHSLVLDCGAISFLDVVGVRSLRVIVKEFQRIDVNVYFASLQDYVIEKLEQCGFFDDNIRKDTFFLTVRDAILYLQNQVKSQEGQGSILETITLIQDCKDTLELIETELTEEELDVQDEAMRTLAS
Assay type: cell-based
Text: Halide sensor YFP F46L/H148Q/I152L is quenched by halide ion like Iodide. When such YFP is expressed in a cell, it expresses in the cytoplasm.
To measure H723R-PDS activity, PANC-1 cells were stably transfected with halide sensors YFP-F46L/H148Q/I152L and H723R-PDS which has problems with membrane trafficking due to misfolding.
If the cell-treated drug is a corrector for H723R-PDS, H723R-PDS will translocate normally to the plasma membrane.
At this time, when treated with a high-concentration iodide solution outside the cell, iodide enters the cell due to the Cl−/I− exchange activity of pendrin, and the fluorescence of the halide sensor YFP decreases.
PANC-1 cells were cultured in Dulbecco's Modified Eagle's Medium with 10% fetal bovine serum, 2 mM glutamine, 100 units/ml penicillin and 100 µg/ml streptomycin. For high-throughput screening, PANC-1 cells were stably transfected with human H723R-pendrin and halide sensor YFP-F46L/H148Q/I152L.
PANC-1 cells expressing human H723R-pendrin and YFP-F46L/H148Q/I152L were plated in 96-well microplates at a density of 2×10^4 cells per well and grown for 20-24 hours at 37° C. (90% humidity 5% CO2). Then these cells were treated with 50 μl growth medium containing test compounds and incubated for 20-24 hours. For YFP quenching assay, each well of the 96-well plate was washed 2 times with 200 μl of PBS, and it was filled with 50 μl of HEPES-buffered solution (140 mM NaCl, 5 mM KCl, 1 mM MgCl2, 1 mM CaCl2, 10 mM D-glucose, 10 mM HEPES; pH 7.4 with NaOH). After 10 minutes of incubation at 37° C., the 96-well plate was moved on the FLUOstar Omega Microplate Reader (BMG Labtech, Ortenberg, Germany) for a fluorescence assay. Each well was assayed individually for H723R-pendrin mediated I^− influx by recording fluorescence (495±15 nm excitation, 520±20 nm emission) every 400 ms for 1 second (baseline). Then, 50 μL of NaI-substituted HEPES-buffered solution (NaI replacing NaCl) was added using a liquid injector at 1 second and YFP fluorescence was recorded every 400 ms for 10 seconds. The initial iodide influx rate was determined from the initial slope of fluorescence by nonlinear regression, after the infusion of iodide.
It is indicated as EC50 with the following key: A=EC50 less than 5 uM; B=EC50 greater than 5 uM, but less than 10 uM; C=EC50 greater than 10 uM.

Structure (SMILES)	EC50 [µM]
COc1ccc(-c2cncc(C3=C(N)N(c4ccccc4OC)CC3=O)n2)cc1OC [Compound 37]	> 10
NC1=C(c2cc(-c3ccc(O)c(O)c3)ncn2)C(=O)CN1c1ccccc1Cl [Compound 72]	> 10
COc1ccc(-c2nccc(C3=C(N)N(CC4CCCC4)CC3=O)n2)cc1OC [Compound 77]	> 10
COc1ccc(-c2nccc(C3=C(N)N(c4ccccc4F)CC3=O)n2)cc1OC [Compound 5]	> 10
COc1cc(-c2cncc(C3=C(N)N(c4ccccc4Cl)CC3=O)n2)cnc1OC [Compound 21]	> 10
COc1ccc(-c2ccnc(C3=C(N)N(c4ccccc4F)CC3=O)n2)cc1OC [Compound 1]	> 10
COc1ccc(-c2cncc(C3=C(N)N(C4CCCC4)CC3=O)n2)cc1OC [Compound 14]	5 to 10
NC1=C(c2cccc(-c3ccc(O)c(O)c3)n2)C(=O)CN1c1ccccc1F [Compound 92]	5 to 10
COc1ccc(-c2cncc(C3=C(N)N(CC4CCN(C)C4)CC3=O)n2)cc1OC (stereo not shown) [Compound 52]	> 10
NC1=C(c2cncc(-c3ccc(OC(F)(F)F)c(O)c3)n2)C(=O)CN1c1ccccc1Cl [Compound 31]	> 10
COc1ccc(-c2cccc(C3=C(N)N(CCC(F)(F)F)CC3=O)n2)cc1OC [Compound 93]	> 10
COc1ccc(-c2nccc(C3=C(N)N(c4ccccc4Cl)CC3=O)n2)cc1OC [Compound 98]	> 10
NC1=C(c2cncc(-c3ccc(O)c(OC4COC4)c3)n2)C(=O)CN1CC1CCCC1 [Compound 70]	< 5
NC1=C(c2cncc(-c3ccc(O)c(O)c3)n2)C(=O)CN1CC1CC(F)(F)C1 [Compound 104]	5 to 10
NC1=C(c2cccc(-c3ccc(O)c(O)c3)n2)C(=O)CN1c1ccccc1Cl [Compound 76]	> 10
NC1=C(c2cccc(-c3ccc(O)c(O)c3)n2)C(=O)CN1CC1CCCC1 [Compound 81]	< 5
NC1=C(c2ccnc(-c3ccc(O)c(O)c3)c2)C(=O)CN1c1ccccc1F [Compound 101]	> 10
COc1ccc(-c2cncc(C3=C(N)N(c4ccccc4Cl)CC3=O)c2)cc1OC [Compound 7]	> 10

Other lines, results leading:

EC50 [µM]	Structure (SMILES)
> 10	COc1ccc(-c2cnc(C3=C(N)N(c4ccccc4F)CC3=O)nc2)cc1OC [Compound 2]
> 10	NC1=C(c2cncc(-c3ccc(O)c(O)c3)n2)C(=O)CN1CC1CCOC1 (stereo not shown) [Compound 41]
> 10	COc1ccc(-c2ccc(C3=C(N)N(c4ccccc4Cl)CC3=O)cn2)cc1OC [Compound 58]
> 10	COc1ccc(-c2ccnc(C3=C(N)N(CC4CCOC4)CC3=O)n2)cc1OC (stereo not shown) [Compound 84]
> 10	COc1cc(-c2cncc(C3=C(N)N(CC4CCOC4)CC3=O)c2)ccc1O (stereo not shown) [Compound 91]
> 10	COc1cc(OC)cc(-c2cncc(C3=C(N)N(c4ccccc4Cl)CC3=O)n2)c1 [Compound 22]
5 to 10	COc1ccc(-c2cncc(C3=C(N)N(c4ccccc4Cl)CC3=O)n2)c(OC)c1 [Compound 20]
> 10	NC1=C(c2cncc(-c3ccc(O)c(O)c3)c2)C(=O)CN1c1ccccc1Cl [Compound 47]
5 to 10	COc1ccc(-c2cncc(C3=C(N)N(c4cccc(Cl)c4Cl)CC3=O)n2)cc1OC [Compound 63]
< 5	COc1ccc(-c2cncc(C3=C(N)N(CCC4CCCC4)CC3=O)n2)cc1OC [Compound 44]
> 10	COc1cc(-c2cncc(C3=C(N)N(CC4CCCC4)CC3=O)c2)ccc1O [Compound 71]
> 10	COC1CC(Oc2cc(-c3cncc(C4=C(N)N(CC5CCCC5)CC4=O)n3)ccc2O)C1 (stereo not shown) [Compound 118]
> 10	COc1ccc(-c2cncc(C3=C(N)N(CC4CCNC4)CC3=O)n2)cc1OC (stereo not shown) [Compound 39]
> 10	COc1ccc(-c2cncc(C3=C(N)N(c4ccccc4O)CC3=O)n2)cc1OC [Compound 42]
> 10	NC1=C(c2ccc(-c3ccc(O)c(O)c3)nc2)C(=O)CN1c1ccccc1Cl [Compound 59]
> 10	NC1=C(c2cncc(-c3ccc(O)c(O)c3)n2)C(=O)CN1CCC(F)(F)F [Compound 19]
